Results taken from publication PMC11595612, “Phytochemical Investigation and Biological Activities of Desmodium heterocarpon Extract as Anti-Tyrosinase: Isolation of Natural Compounds, In Vitro and In Silico Study” (Life, 2024).
≈ marks a conversion by molar mass, not a printed value. Read-outs that look alike come from different tables or passages of the source.

Assays:
[1] = tested on: Candida albicans (TISTR 5779); test: MIC/MFC by micro-dilution method; details: for MFC / MIC: Candida albicans, TISTR5779
Trichophyton rubrum = test: MIC/MFC by micro-dilution method; details: for MFC / MIC: Trichophyton rubrum
[2] = tested on: Propionibacterium acnes (DMST 14916); test: MIC/MBC by micro-dilution method; details: Cutibacterium acnes
tyrosinase [3] = details: previous study, read-out: IC50, anti-tyrosinase activity, cited from earlier work
[4] = tested on: Pseudomonas aeruginosa ATCC10145; test: MIC/MBC by micro-dilution method
[5] = tested on: Staphylococcus epidermidis (TISTR 517); test: MIC/MBC by micro-dilution method; details: TISTR517
[6] = tested on: Escherichia coli ATCC35218; test: MIC/MBC by micro-dilution method
Microsporum gypseum = test: MIC/MFC by micro-dilution method; details: for MFC / MIC: Nannizzia gypsea
[7] = tested on: Trichophyton mentagrophytes; test: MIC/MFC by micro-dilution method; details: for MFC / MIC: Trichophyton mentagrophytes
[8] = tested on: Staphylococcus aureus (ATTC 25923); test: MIC/MBC by micro-dilution method
tyrosinase [9] = details: cited from earlier work
[10] = tested on: A. fumigatus, A. flavus, A. niger, and tested Chrysosporium species; parameters: method as in earlier work; details: at 30 mg/mL; isolated from fruit extract of Flacourtia inermis Roxb; cited from earlier work
[11] = tested on: P. aeruginosa, Klebsiella pneumoniae, E. coli, Salmonella typhimurium, and S. aureus; details: at a concentration of 315 ± 0.04 µg/mL; cited from earlier work
[12] = tested on: MRSA, S. epidermidis, Propionibacterium acnes, Escherichia coli, and Pseudomonas aeruginosa; test: MIC/MBC by micro-dilution, summary over bacteria (abstract)
[13] = tested on: B. aureus, L. monocytogenes, and E. coli; parameters: method as in doi:10.17221/132/2010-CJFS; details: cited from earlier work
[14] = tested on: Rhizopus stolonifer and Botrytis; parameters: method as in doi:10.1016/S0925-5214(96)00031-2; details: at a dosage of 5 mM; cited from earlier work
[15] = tested on: Candida albicans, Microsporum gypseum, Trichophyton rubrum, and T. mentagrophytes; test: MIC/MFC by micro-dilution, summary over yeast and filamentous fungi (abstract); format: cell-based; details: C. albicans, M. gypseum

SMILES | MFC (Trichophyton rubrum) | MIC (Trichophyton rubrum) | MBC [2] | MIC [2] | MFC [1] | MIC [1] | MBC [4] | MIC [4] | MBC [5] | MIC [5] | MBC [6] | MIC [6] | MFC (Microsporum gypseum) | MIC (Microsporum gypseum) | MFC [7] | MIC [7] | MBC ([8]; Staphylococcus aureus) | MIC ([8]; Staphylococcus aureus) | further results
C[C@@H]1[C@H](O)[C@@H](C)/C=C/C=C/C=C/C=C/C=C/C=C/C=C/[C@H](O[C@@H]2O[C@H](C)[C@@H](O)[C@H](N)[C@@H]2O)C[C@@H]2O[C@](O)(C[C@@H](O)C[C@@H](O)[C@H](O)CC[C@@H](O)C[C@@H](O)CC(=O)O[C@H]1C)C[C@H](O)[C@H]2C(=O)O [amphotericin B, reference compound] | – | – | – | – | – | – | – | – | – | – | – | – | – | – | – | – | – | – | Antibiotic * (positive control value; MIC/MFC not specified) ([1]; C. albicans): 0.5
O=c1c(-c2ccc(O)cc2)coc2cc(O)cc(O)c12 [compound 1, genistein] | > 100 µg/mL | > 100 µg/mL | > 100 µg/mL | > 100 µg/mL | > 100 µg/mL | > 100 µg/mL | > 100 µg/mL | > 100 µg/mL | > 100 µg/mL | > 100 µg/mL | > 100 µg/mL | > 100 µg/mL | > 100 µg/mL | > 100 µg/mL | > 100 µg/mL | > 100 µg/mL | > 100 µg/mL | > 100 µg/mL | IC50 (tyrosinase [3]; ref 40): 363 µM; IC50 (tyrosinase [3]; ref 41): 822 µM
CCCCCCCCCCCCCCCC(=O)O [compound 2, hexadecanoic acid] | > 100 µg/mL | > 100 µg/mL | > 100 µg/mL | > 100 µg/mL | > 100 µg/mL | > 100 µg/mL | > 100 µg/mL | > 100 µg/mL | > 100 µg/mL | > 100 µg/mL | > 100 µg/mL | > 100 µg/mL | > 100 µg/mL | > 100 µg/mL | > 100 µg/mL | > 100 µg/mL | > 100 µg/mL | > 100 µg/mL | –
O=C(O)c1ccccc1O [compound 3, salicylic acid] | – | – | – | – | – | – | – | – | – | – | – | – | – | – | – | – | – | – | type of inhibition (Lineweaver–Burk plots) (tyrosinase [9]): non-competitive inhibitor
CC[C@H](CC[C@@H](C)[C@H]1CC[C@H]2[C@@H]3CC=C4C[C@@H](O[C@@H]5O[C@H](CO)[C@@H](O)[C@H](O)[C@H]5O)CC[C@]4(C)[C@H]3CC[C@]12C)C(C)C [compound 4, β-sitosterol-D-glucoside] | > 100 µg/mL | > 100 µg/mL | > 100 µg/mL | > 100 µg/mL | > 100 µg/mL | > 100 µg/mL | > 100 µg/mL | > 100 µg/mL | > 100 µg/mL | > 100 µg/mL | > 100 µg/mL | > 100 µg/mL | > 100 µg/mL | > 100 µg/mL | > 100 µg/mL | > 100 µg/mL | > 100 µg/mL | > 100 µg/mL | –
O=C(O)c1cccc(O)c1O [compound 5, 2,3-dihydroxybenzoic acid] | 10 µg/mL (≈ 64.9 µM) | 10 µg/mL (≈ 64.9 µM) | 20 µg/mL (≈ 130 µM) | 15 µg/mL (≈ 97.3 µM) | 15 µg/mL (≈ 97.3 µM) | 10 µg/mL (≈ 64.9 µM) | 20 µg/mL (≈ 130 µM) | 15 µg/mL (≈ 97.3 µM) | 15 µg/mL (≈ 97.3 µM) | 15 µg/mL (≈ 97.3 µM) | 15 µg/mL (≈ 97.3 µM) | 15 µg/mL (≈ 97.3 µM) | 10 µg/mL (≈ 64.9 µM) | 10 µg/mL (≈ 64.9 µM) | 10 µg/mL (≈ 64.9 µM) | 10 µg/mL (≈ 64.9 µM) | 15 µg/mL (≈ 97.3 µM) | 15 µg/mL (≈ 97.3 µM) | antifungal action [10]: preventing the growth; growth of bacteria [11]: inhibited the growth
O=C(O)c1cc(O)ccc1O [compound 6, 2,5-dihydroxybenzoic acid] | 15 µg/mL (≈ 97.3 µM) | 15 µg/mL (≈ 97.3 µM) | 40 µg/mL (≈ 260 µM) | 30 µg/mL (≈ 195 µM) | 15 µg/mL (≈ 97.3 µM) | 15 µg/mL (≈ 97.3 µM) | 35 µg/mL (≈ 227 µM) | 20 µg/mL (≈ 130 µM) | 15 µg/mL (≈ 97.3 µM) | 15 µg/mL (≈ 97.3 µM) | 35 µg/mL (≈ 227 µM) | 20 µg/mL (≈ 130 µM) | 15 µg/mL (≈ 97.3 µM) | 15 µg/mL (≈ 97.3 µM) | 15 µg/mL (≈ 97.3 µM) | 15 µg/mL (≈ 97.3 µM) | 5 µg/mL (≈ 32.4 µM) | 5 µg/mL (≈ 32.4 µM) | MBC [12]: 15 to 40 µg/mL (≈ 97.3 to 260 µM); MIC [12]: 15 to 30 µg/mL (≈ 97.3 to 195 µM); MIC [13]: 2500 µM (≈ 385 µg/mL); spore germination [14]: inhibited; MFC [15]: 15 µg/mL (≈ 97.3 µM); MIC [15]: 15 µg/mL (≈ 97.3 µM); MBC ([8]; S. aureus): 5 µg/mL (≈ 32.4 µM); MIC ([8]; S. aureus): 5 µg/mL (≈ 32.4 µM)
CC(=O)N1CCN(c2ccc(OCC3COC(Cn4ccnc4)(c4ccc(Cl)cc4Cl)O3)cc2)CC1 (centres unmarked) [ketoconazole, reference compound] | – | – | – | – | – | – | – | – | – | – | – | – | – | – | – | – | – | – | Antibiotic * (positive control value; MIC/MFC not specified) (Trichophyton rubrum; T. rubrum): 0.25; Antibiotic * (positive control value; MIC/MFC not specified) (Microsporum gypseum; M. gypseum): 0.25; Antibiotic * (positive control value; MIC/MFC not specified) ([7]; T. mentagrophytes): 0.25
